In ChEMBL document CHEMBL1201862, “PubChem BioAssay data set” (2004):
Calls of active or inactive are those of the source.

Experiments:
Bcl-2-related protein A1 = biological target: T1, Bcl-2-related protein A1 (Mus musculus, UniProt Q07440); type: functional;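 note: confirmatory dose–response counterscreen on Bfl-1, used to check hits from a UBC13 polyubiquitin inhibitor campaign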
T1 sequence (Q07440 whole entry): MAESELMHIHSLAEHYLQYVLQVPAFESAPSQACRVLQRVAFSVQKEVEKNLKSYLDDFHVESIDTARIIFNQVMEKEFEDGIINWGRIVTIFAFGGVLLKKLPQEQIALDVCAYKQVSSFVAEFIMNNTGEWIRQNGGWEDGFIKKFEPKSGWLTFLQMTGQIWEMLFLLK

[1] = biological target: T2, Ubiquitin-conjugating enzyme E2 N (Homo sapiens, UniProt P61088); type: functional
T2 sequence (P61088 whole entry): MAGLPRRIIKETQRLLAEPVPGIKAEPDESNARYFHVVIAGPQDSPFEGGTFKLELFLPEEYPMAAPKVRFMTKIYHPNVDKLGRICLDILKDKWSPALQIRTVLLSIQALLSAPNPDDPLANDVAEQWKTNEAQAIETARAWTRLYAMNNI

[2] = biological target: T2, Ubiquitin-conjugating enzyme E2 N; type: functional; remark: listed apart in the source
[3] = biological target: Alkaline phosphatase, placental type (Homo sapiens, UniProt P05187); assay: PLAP enzyme inhibitors, confirmation, biochemical, luminescence (AID 1512); type: functional
Alkaline phosphatase, placental type, sequence (P05187 whole entry): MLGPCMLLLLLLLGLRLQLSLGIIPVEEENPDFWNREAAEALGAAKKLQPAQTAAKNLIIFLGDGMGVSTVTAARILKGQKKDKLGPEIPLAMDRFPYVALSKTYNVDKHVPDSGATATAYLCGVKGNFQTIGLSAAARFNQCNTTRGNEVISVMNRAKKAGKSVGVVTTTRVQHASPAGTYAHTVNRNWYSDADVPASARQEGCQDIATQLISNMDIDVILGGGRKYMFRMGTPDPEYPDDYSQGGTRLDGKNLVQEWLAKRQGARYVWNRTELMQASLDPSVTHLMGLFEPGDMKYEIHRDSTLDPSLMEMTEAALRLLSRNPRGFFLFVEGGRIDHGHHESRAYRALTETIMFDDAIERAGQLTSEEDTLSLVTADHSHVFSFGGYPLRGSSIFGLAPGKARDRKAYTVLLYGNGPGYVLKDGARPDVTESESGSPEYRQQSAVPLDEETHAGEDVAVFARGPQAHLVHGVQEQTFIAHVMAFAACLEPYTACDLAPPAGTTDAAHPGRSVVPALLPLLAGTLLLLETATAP

[4] = Luminescence Cell-Based Dose Response HTS to Identify Activators of Luciferase Translation or Activity in H4 […] Cells. [Related pubchem assays: 1829 (Project Summary), 1814 (Primary HTS)]; type: functional
[5] = biological target: T3, Alkaline phosphatase, tissue-nonspecific isozyme (Homo sapiens, UniProt P05186); assay: human TNAP enzyme inhibitors, SAR follow-up, biochemical, luminescent, dose response (AID 1056)
T3 sequence (P05186 whole entry): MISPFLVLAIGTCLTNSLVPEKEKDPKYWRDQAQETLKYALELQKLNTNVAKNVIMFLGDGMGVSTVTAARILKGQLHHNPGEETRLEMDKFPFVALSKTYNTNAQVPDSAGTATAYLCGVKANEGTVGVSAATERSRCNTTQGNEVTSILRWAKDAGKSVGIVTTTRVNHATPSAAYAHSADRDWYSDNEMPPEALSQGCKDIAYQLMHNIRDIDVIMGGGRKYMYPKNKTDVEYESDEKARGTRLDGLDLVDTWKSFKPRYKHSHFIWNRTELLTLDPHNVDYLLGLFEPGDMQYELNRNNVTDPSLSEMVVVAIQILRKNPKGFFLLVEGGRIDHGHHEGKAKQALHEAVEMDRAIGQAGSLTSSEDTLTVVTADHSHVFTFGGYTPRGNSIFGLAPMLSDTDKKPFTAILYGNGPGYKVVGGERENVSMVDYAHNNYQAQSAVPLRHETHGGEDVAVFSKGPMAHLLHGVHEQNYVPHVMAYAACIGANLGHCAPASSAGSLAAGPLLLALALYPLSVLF

[6] = biological target: G-protein coupled receptor 55 (Homo sapiens, UniProt Q9Y2T6); assay: GPR55 agonists via beta-arrestin recruitment, primary screen, imaging, U2OS cells, beta-arrestin-GFP redistribution (AID 1961); type: functional
G-protein coupled receptor 55, sequence (Q9Y2T6 whole entry): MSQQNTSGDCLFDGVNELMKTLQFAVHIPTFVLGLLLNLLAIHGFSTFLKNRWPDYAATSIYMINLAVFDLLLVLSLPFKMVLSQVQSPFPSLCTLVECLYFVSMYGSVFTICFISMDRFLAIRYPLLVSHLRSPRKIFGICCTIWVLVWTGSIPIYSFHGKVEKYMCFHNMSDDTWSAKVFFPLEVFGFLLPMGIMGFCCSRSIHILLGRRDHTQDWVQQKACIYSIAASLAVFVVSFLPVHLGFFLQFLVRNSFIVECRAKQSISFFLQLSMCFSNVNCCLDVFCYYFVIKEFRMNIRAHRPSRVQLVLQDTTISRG

[7] = biological target: T4, Microphthalmia-associated transcription factor (Homo sapiens, UniProt O75030); assay: TRPM1 promoter luciferase signal decrease, dose response, MITF inhibitor project, cell-based, SK-MEL-5, cherry-picked, set 3 (AID 493073); type: functional
T4 sequence (O75030 whole entry): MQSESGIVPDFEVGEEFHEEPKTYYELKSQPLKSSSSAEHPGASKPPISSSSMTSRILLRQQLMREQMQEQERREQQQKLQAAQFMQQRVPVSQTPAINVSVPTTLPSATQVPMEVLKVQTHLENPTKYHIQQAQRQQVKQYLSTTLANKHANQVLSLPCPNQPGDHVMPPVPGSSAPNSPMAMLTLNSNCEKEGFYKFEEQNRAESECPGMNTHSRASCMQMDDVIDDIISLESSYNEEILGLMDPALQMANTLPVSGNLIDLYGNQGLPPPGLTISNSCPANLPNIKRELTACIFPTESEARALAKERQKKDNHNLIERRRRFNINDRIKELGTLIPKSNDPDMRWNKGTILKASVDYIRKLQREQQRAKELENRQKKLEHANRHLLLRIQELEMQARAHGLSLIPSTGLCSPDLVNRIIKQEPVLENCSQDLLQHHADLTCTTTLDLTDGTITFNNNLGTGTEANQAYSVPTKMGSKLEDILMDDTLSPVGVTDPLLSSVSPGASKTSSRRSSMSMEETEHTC

[8] = biological target: T5, Heat shock factor protein 1 (Mus musculus, UniProt P38532); assay: inhibition of MG132-induced HSE-luciferase signal, confirmation, cell-based, NIH3T3, luminescence, dose retest (AID 2382); type: functional;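 note: NIH3T3 fibroblasts with HSF1-driven luciferase reporter stressed by proteasome inhibitor MG132; luminescence from HSF1-driven luciferase expression after 8 hours of MG132 stress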
T5 sequence (P38532 whole entry): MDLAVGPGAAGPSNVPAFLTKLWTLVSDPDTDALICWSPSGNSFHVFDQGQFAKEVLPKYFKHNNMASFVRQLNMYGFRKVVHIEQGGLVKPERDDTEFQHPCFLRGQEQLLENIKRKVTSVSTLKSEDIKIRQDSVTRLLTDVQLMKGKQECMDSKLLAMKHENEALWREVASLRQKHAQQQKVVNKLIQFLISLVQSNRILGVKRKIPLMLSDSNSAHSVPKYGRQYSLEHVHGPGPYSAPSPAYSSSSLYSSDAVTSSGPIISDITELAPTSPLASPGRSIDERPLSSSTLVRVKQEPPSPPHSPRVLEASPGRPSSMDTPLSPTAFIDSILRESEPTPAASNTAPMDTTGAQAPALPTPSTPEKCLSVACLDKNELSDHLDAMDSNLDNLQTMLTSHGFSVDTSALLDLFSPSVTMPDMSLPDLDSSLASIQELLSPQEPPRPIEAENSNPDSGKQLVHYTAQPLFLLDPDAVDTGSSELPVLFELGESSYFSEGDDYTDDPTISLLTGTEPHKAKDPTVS

[9] = biological target: T6, Rac GTPase-activating protein 1 (Homo sapiens, UniProt Q9H0H5); assay: MgcRacGAP GTPase-activating activity inhibitors, confirmation, biochemical, ADP Hunter fluorescence, primary and confirmatory (AID 624330); type: functional
T6 sequence (Q9H0H5 whole entry): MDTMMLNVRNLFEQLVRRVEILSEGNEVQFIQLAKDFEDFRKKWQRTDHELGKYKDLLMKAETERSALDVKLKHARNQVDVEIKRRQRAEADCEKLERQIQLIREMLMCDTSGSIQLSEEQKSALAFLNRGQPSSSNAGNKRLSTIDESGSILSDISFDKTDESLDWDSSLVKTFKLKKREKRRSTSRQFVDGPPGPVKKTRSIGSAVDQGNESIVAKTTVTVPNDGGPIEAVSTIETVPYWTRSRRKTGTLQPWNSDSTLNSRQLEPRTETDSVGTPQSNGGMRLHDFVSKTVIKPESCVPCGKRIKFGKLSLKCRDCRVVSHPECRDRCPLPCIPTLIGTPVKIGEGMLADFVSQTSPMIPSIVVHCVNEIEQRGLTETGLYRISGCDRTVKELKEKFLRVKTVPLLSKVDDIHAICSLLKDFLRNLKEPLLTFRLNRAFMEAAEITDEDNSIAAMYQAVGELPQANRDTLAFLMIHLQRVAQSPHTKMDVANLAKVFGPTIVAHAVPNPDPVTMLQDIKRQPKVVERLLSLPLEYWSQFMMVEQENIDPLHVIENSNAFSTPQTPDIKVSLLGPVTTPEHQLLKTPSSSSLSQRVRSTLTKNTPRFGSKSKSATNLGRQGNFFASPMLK

[10] = biological target: T7, Tyrosine-protein phosphatase non-receptor type 7 (Homo sapiens, UniProt P35236); assay: SAR analysis of chemical inhibitors of HePTP using a Fluorescent assay - Set 2. [Related pubchem assays (depositor defined):AID1059, AID1077, AID1661, AID2085, AID521]; type: functional
T7 sequence (P35236 whole entry): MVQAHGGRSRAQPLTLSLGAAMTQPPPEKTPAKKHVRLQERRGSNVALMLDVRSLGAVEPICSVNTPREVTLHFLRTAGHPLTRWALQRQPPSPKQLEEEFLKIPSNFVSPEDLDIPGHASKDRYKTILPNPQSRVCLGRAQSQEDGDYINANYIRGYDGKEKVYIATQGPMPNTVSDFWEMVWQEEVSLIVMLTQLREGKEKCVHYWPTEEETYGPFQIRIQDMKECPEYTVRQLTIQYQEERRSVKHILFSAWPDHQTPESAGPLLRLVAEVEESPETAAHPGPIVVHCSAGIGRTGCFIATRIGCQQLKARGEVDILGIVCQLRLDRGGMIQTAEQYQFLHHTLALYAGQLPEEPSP

[11] = biological target: Dual specificity protein phosphatase 3 (Homo sapiens, UniProt P51452); assay: SAR VHR1 Fluorescent Assay for In Vitro dose response studies Set 2. [Related pubchem assays (depositor defined):AID1654, AID1661, AID1878]; type: functional
Dual specificity protein phosphatase 3, sequence (P51452 whole entry): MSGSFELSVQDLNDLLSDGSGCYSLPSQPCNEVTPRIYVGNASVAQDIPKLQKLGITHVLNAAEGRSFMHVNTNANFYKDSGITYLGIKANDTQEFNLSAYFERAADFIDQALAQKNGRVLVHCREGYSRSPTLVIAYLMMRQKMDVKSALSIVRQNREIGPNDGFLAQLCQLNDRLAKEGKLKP

CSCCC(NC(=O)COc1ccccc1)C(=O)N1CCC(C(N)=O)CC1 (centres undefined)
IC50 (Bcl-2-related protein A1): > 20 µM (inactive)
IC50 [1]: 12.3 µM (active)
IC50 [2]: > 20 µM (inactive)

Clc1ccccc1-c1n[nH]c(-c2ccccc2)n1
IC50 [3]: > 100 µM (inactive)
EC50 [4]: 0.348 µM (active)
IC50 [5]: 0.641 µM (active)

CC(C)(C)OC(=O)CN1C(=O)S/C(=C\c2ccc(-c3cccc(C(=O)O)c3)o2)C1=O
EC50 [6]: 4.23 µM (active)

Nc1ccc2c(c1)OC1(CCCC1)O2
AC50 [7]: 11.2 µM (active)
IC50 [3]: > 100 µM (inactive)
EC50 [8]: 4.26 µM (active)
IC50 [5]: > 100 µM (inactive)
IC50 [9]: 31.5 µM (active)

Oc1ccc(CCNC(=S)Nc2ccc(Cl)cc2Cl)cc1O
IC50 [10]: 18.8 µM (active)
IC50 [11]: 30.5 µM (active)
